Assays:
[1] = tested on: blood vessels of L540 tumors; assay: Annexin V inhibition of coaguligand-induced thrombosis in vivo; parameters: species or system mouse
Procedure: The ability of Annexin V to inhibit coaguligand-induced thrombosis in vivo was examined in L540 Hodgkin-bearing SCID mice. Tumors were grown in mice and two mice per group (tumor size 0.5 cm in diameter) were injected intravenously via the tail vein with one of the following reagents: a) saline; b) 100 μg of Annexin V; c) 40 μg of anti-VCAM-1•tTF; d) 100 μg of Annexin V followed 2 hours later by 40 μg of anti-VCAM-1•tTF.
Four hours after the last injection mice were anesthetized and perfused with heparinized saline. Tumors were removed, fixed with 4% formalin, paraffin-embedded and stained with hematoxylene-eosin. The number of thrombosed and non-thrombosed blood vessels was counted and the percentage of thrombosis was calculated.

[2] = tested on: vascular endothelium of tumors and normal organs; assay: Detection of anionic phospholipids in tumor bearing mice in vivo (9D2, annexin V); parameters: species or system mouse
Procedure: For localization studies, 2×10^7 L540 human Hodgkin's lymphoma cells or 1×10^7 cells of other tumor types were injected subcutaneously into the right flank of SCID mice (Charles River. Wilmington, Mass.). Tumors were allowed to reach a volume of 0.4-0.7 cm^3. A minimum of three animals per group was used. Studies were replicated at least three times.
Female nu/nu or SCID mice were purchased from Charles River. MDA-MB-231 human mammary carcinoma cells were implanted into the mammary fat pad according to a published protocol (Price. 1996). Briefly, mice were anesthetized and a 5-mm incision was made in the skin over the lateral thorax. The mammary pad was exposed to ensure the correct site for injection of 1×10^7 MDA-MB-231 cells re-suspended in 0.1 ml of saline.
To detect externally-positioned phospholipids, methods were performed essentially as previously described (Example V; Ran et al., 1998). Tumor-bearing SCID mice were injected intravenously with either 50 μg of 9D2 or biotinylated 9D2 antibody or 100 μg of biotinylated annexin V. Sixty min later mice were sacrificed and their blood circulation was exsanguinated and perfused with heparinized saline as previously described (Burrows et al., 1992). All major organs and tumor were harvested and snap-frozen for preparation of cryosections.
Sections were blocked with PBS containing 10% serum. To prevent loss of phospholipids during slide processing, detergents and organic solvents were omitted from blocking and washing buffers. Rat IgM was detected using goat anti rat IgM (μspecific)-HRP conjugate followed by development with carbazole or DAB (Fries et al., 1993). Biotinylated reagents were detected by streptavidin conjugated to HRP.
Tumor sections derived from mice injected with saline or rat IgM of irrelevant specificity served as negative controls. Additional controls consisted of incubating the slides in 1% Triton solution or in acetone for 10 min. These treatments extract phospholipids. No signal was detected under these conditions. The number of positive vessels per high power field was determined at magnification of ×100. At least 10 fields per section were examined and the average percentage of positive vessels was calculated. Staining of the sections by this method for the presence of 9D2 or annexin V detects cells having externalized anionic phospholipids that were accessible for binding by the reagents in vivo.
Structures with localized 9D2 antibody or annexin V were identified as blood vessels by morphological appearance on DAB-stained sections and by co-incident staining with the pan-endothelial cell marker, MECA 32 on serial sections of frozen tissues. Quantification on DAB-stained sections was done by counting vessels stained by MECA 32, 9D2 or annexin V in serial sections of a tumor. Six slides of each tumor type derived from 6 mice injected with 9D2 antibody, control rat IgM or annexin V were examined. At least 10 random fields per section (0.317 mm^2/field) were scored in blinded fashion by two independent observers. The mean numbers and standard errors of vessels stained by 9D2, annexin V or MECA 32 were calculated. The mean number of 9D2 or annexin V-positive vessels determined in each tumor type group was compared to the mean number of MECA 32-positive vessels in the same tumor group. The percentage of 9D2 or annexin V-positive vessels was calculated.

[3] = tested on: vascular endothelium of MDA-MB-231 tumors; assay: Double staining study, orthotopic MDA-MB-231 tumors; assay type: in vivo, mouse; conditions: biotinylated reagent i.v., one hour
Procedure: In further studies, mice bearing MDA-MB-231 tumors (0.3-0.7 cm^3 in volume) were injected intravenously with 50 μg of biotinylated 9D2, control IgM or annexin V (six mice per group). Biotinylated reagents were first incubated with streptavidin-Cy3 conjugate, washed in PBS. then incubated with MECA 32 antibody followed by FITC-tagged anti-rat IgG secondary antibody. Single images, taken with appropriate filters for Cy3 (red) and FITC (green) fluorescence respectively, were captured by digital camera and transferred to a computer. […] The same method was used to analyze tumors from mice injected with control rat IgM or saline. The percentage of vessels with localized 9D2 or annexin V was calculated as follows: mean number of yellow vessels per field divided by mean number of green (total) vessels multiplied by 100.
Double staining studies were also performed in which mice bearing orthotopic MDA-MB-231 breast tumors were injected intravenously with biotinylated 9D2 antibody, biotinylated control IgM or biotinylated annexin V. One hour later, the mice were exsanguinated, and their tumors were removed and frozen sections were cut. The tumor sections were then stained with Cy3-conjugated streptavidin to detect the biotinylated proteins and with FITC-conjugated MECA32 to detect vascular endothelium. […]

Annexin V: high affinity PS binding ligand; natural ligand of anionic phospholipids and PE
coaguligand-induced intravascular thrombosis and changes in tumor cell morphology ([1]; 100 μg Annexin V 2 hours before 40 μg coaguligand): completely abolished | tumor morphology ([1]; 100 μg Annexin V alone): did not alter tumor morphology | PS-positive vessels of MECA 32-stained vessels (mean ±SE) ([2]; B16 tumor): 21.3 ± 6.6% | PS-positive vessels of MECA 32-stained vessels (mean ±SE) ([2]; L540cy tumor): 16.7 ± 3.9% | PS-positive vessels of MECA 32-stained vessels (mean ±SE) ([2]; MDA-MB-231 tumor): 45.3 ± 5.6% | PS-positive vessels of MECA 32-stained vessels (mean ±SE) ([2]; MDA-MB-231 tumor, listed as annexin V): 40% | PS-positive vessels of MECA 32-stained vessels (mean ±SE) ([2]; NCI-H358 tumor): 15% | vascular localization in normal organs ([2]; nine of ten normal organs examined (kidney tubules non-specific)): No vascular localization | MECA 32 positive vessels that bound the reagent [3]: About 40%
